# “Also recorded” adds a separate entry of the source.
# Key:
# [1] = tested on: 60 cell lines (human tumor cell lines of the cancer screening panel); test: NCI 60 cell line screening, single point dosing at 10 μM (SRB); assay type: cell-based
# Procedure: (§1) The screening is a two-stage process, beginning with the evaluation of all compounds against 60 cell lines at a single dose of 10^−5 M.
# (§2) The human tumor cell lines of the cancer screening panel are grown in RPMI 1640 medium containing 5% fetal bovine serum and 2 mM L-glutamine. Cells are inoculated into 96 well microtiter plates in 100 μL at plating densities ranging from 5,000 to 40,000 cells/well depending on the doubling time of individual cell lines. After cell inoculation, the microtiter plates are incubated at 37° C., 5% CO2, 95% air and 100% relative humidity for 24 h prior to addition of experimental drugs.
# After 24 h, two plates of each cell line are fixed in situ with TCA, to represent a measurement of the cell population for each cell line at the time of drug addition Time Zero (Tz). Experimental drugs are solubilized in dimethyl sulfoxide:glycerol 9:1 at 400-fold the desired final maximum test concentration and stored frozen at −70° C. prior to use. At the time of drug addition, an aliquot of frozen concentrate is thawed and diluted to twice the desired final maximum test concentration with complete medium containing 50 μg/ml gentamicin. Additional four, 10-fold or ½ log serial dilutions are made to provide a total of five drug concentrations plus control. Aliquots of 100 μl of these different drug dilutions are added to the appropriate microtiter wells already containing 100 μl of medium, resulting in the required final drug concentrations.
# Positive control is prepared by adding the known anti-tumor agent adriamycin, NSC 123127, prepared and stored the same as the compounds for testing.
# Following drug addition, the plates are incubated for an additional 48 h at 37° C., 5% CO2, 95% air, and 100% relative humidity. For adherent cells, the assay is terminated by the addition of cold TCA. Cells are fixed in situ by the gentle addition of 50 μl of cold 50% (w/v) TCA (final concentration, 10% TCA) and incubated for 60 minutes at 4° C. The supernatant is discarded, and the plates are washed five times with tap water and air dried. Sulforhodamine B (SRB) solution (100 μl) at 0.4% (w/v) in 1% acetic acid is added to each well, and plates are incubated for 10 minutes at room temperature. After staining, unbound dye is removed by washing five times with 1% acetic acid and the plates are air dried. Bound stain is subsequently solubilized with 10 mM trizma base, and the absorbance is read on an automated plate reader at a wavelength of 515 nm. For suspension cells, the methodology is the same except that the assay is terminated by fixing settled cells at the bottom of the wells by gently adding 50 μl of 80% TCA (final concentration, 16% TCA).
# (§3) For the 1-dose 60 cell testing, the Growth Percent is calculated for each cell line/drug combination from the absorbance measurement for the no-drug control (C), the absorbance at time zero (Tz) and the absorbance measurement after incubation of the cells in the presence of drug (Ti): Growth Percent=[(Ti−Tz)/(C−Tz)]×100 for cell line/drug combinations for which Ti≧Tz. Growth Percent=[(Ti−Tz)/Tz]×100 for cell line/drug combinations for which Ti<Tz.
# Calculation of the Growth Percent by these equations allows detection of both growth inhibition (Growth Percent values between 0 and 100) and lethality (Growth Percent values less than 0). For example, a Growth Percent value of 100 means no growth inhibition. A Growth Percent value of 40 would mean 60% growth inhibition. A Growth Percent value of 0 means no net growth over the course of the experiment, or “cytostatic”, no change by growth or cell death. A Growth Percent value of −40 would mean 40% lethality. A Growth Percent value of −100 means all cells are dead.
# For 1-dose 60 cell testing, the Mean Growth Percent, Delta and Range across all 60 cell lines are also calculated. The Deviation of each cell line/drug combination from the Mean is also calculated and plotted: Deviation=Mean Growth Percent−Growth Percent […]
# [2] = tested on: NCI-H552 (non-small cell lung cancer); test: NCI single point 10 μM, NCI-H552; assay type: cell-based, human; settings: 10^−5 M
# Procedure: as §1
# as §2, with “drugs. […]” for “drugs.”
# (§4) Following drug addition, the plates are incubated for an additional 48 h at 37° C., 5% CO2, 95% air, and 100% relative humidity. […] Bound stain is subsequently solubilized with 10 mM trizma base, and the absorbance is read on an automated plate reader at a wavelength of 515 nm. […]
# as §3, with “Growth Percent=[(Ti−Tz)/Tz]×100 for cell line/drug combinations for which Ti<Tz.” left out
# SN12C (Renal Cancer) = test: NCI single point 10 μM, SN12C; assay type: cell-based, human; settings: 10^−5 M
# Procedure: as §1
# as §2, with “drugs. […]” for “drugs.”
# as §4
# as §3, with “Growth Percent=[(Ti−Tz)/Tz]×100 for cell line/drug combinations for which Ti<Tz.” left out
# TK-10 (Renal Cancer) = test: NCI single point 10 μM, TK-10; assay type: cell-based, human; settings: 10^−5 M
# Procedure: as §1
# as §2, with “drugs. […]” for “drugs.”
# as §4
# as §3, with “Growth Percent=[(Ti−Tz)/Tz]×100 for cell line/drug combinations for which Ti<Tz.” left out
# OVCAR-5 (ovarian cancer) = test: NCI five point dosing, OVCAR-5; assay type: cell-based, human
# Procedure: RL-4 was evaluated against the 60 cell panel at five concentration levels, 10^−8 M, 10^−7 M, 10^−6 M, 10^−5 M and 10^−4 M.
# as §2, with “drugs. […]” for “drugs.”
# as §4
# The percentage growth is calculated at each of the five drug concentrations levels using the seven absorbance measurements, namely absorbance at time zero (Tz), absorbance of control after incubation (C), and absorbance of test sample after incubation in the presence of drug at each of the five concentration levels (Ti). The Growth Percent is calculated as it was for the 1 dose assay: Growth Percent=[(Ti−Tz)/(C−Tz)]×100 for cell line/drug combinations for which Ti≧Tz. […]
# [3] = single dose 10^−5 M, 60 cell lines
# [4] = single point 10 μM, 60 cell lines
smiles,measurement,setting,value
"S=c1c2ncccc2c(-c2ccccn2)nn1C1CCCCC1 [RL-4, 7-cyclohexyl-5-(pyridin-2-yl)pyrido[2,3-d]pyridazine-8(7H)-thione]",GI50,"[1]; Homo sapiens, single point 10 μM, 22 of 60 cell lines, read-out: GI50 for 22 of 60 cell lines (NCI Results, single point, 10 μM)",≤ 10 µM
same,LC50,"[1]; Homo sapiens, single point 10 μM, all 60 cell lines, read-out: LC50 for all 60 cell lines tested (NCI Results, single point, 10 μM)",> 10 µM
same,Delta of Growth Percent across all cell lines,[1]; [3],52.07
same,Mean Growth Percent across all cell lines,[1]; [3],59.94%
same,Range of Growth Percent across all cell lines,[1]; [3],121.36
same,number of cell lines with Growth Percentages greater than 90%,"[1]; single dose 10^−5 M, of 60 cell lines",6
same,anti-proliferative effect / growth inhibition (in words),[1]; [4],significant growth inhibition in almost all cell lines; also recorded: has anti-proliferative effects; also recorded: showed cell growth inhibition across the screened cell lines; also recorded: significant growth inhibition in cancer cell lines
same,toxicity / cell lethality (in words),[1]; [4],relatively non-toxic; also recorded: no associated toxicity; also recorded: No Toxicity is observed
same,number of cell lines with growth inhibition ≧50%,"[1]; single point 10 μM, of 60 cell lines tested",22
same,Growth Percent,[2],91.26%
same,Growth Percent,SN12C (Renal Cancer),95.87%
same,Growth Percent,TK-10 (Renal Cancer),120.12%
same,Growth Percent,OVCAR-5 (ovarian cancer); 10^−4 M dose,54%
same,GI50,"OVCAR-5 (ovarian cancer); Homo sapiens, five point dosing",> 100 µM

# Reference: patent US9394299B2, “Rilyazine derivatives and compositions for the treatment of cancer” (Warner Babcock Institute for Green Chemistry, LLC, priority 2013, dated 2016)
